Laboratory results reported in BindingDB's records for doi:10.1021/np50113a004 (1994).

Tests used:
[1] = Inhibition of LFA1 expressed in human JY cells interaction with ICAM1-IG expressed in human HeLa cell monolayer after 45 mins by cell adhesion assay
Integrin alpha-L = target: T1, Integrin alpha-L (Homo sapiens, UniProt P20701); experiment: Inhibition of LFA1 expressed in human JY cells interaction with ICAM1-IG expressed in human HeLa cell monolayer after 45 mins by cell adhesion assay
T1 sequence (P20701 whole entry): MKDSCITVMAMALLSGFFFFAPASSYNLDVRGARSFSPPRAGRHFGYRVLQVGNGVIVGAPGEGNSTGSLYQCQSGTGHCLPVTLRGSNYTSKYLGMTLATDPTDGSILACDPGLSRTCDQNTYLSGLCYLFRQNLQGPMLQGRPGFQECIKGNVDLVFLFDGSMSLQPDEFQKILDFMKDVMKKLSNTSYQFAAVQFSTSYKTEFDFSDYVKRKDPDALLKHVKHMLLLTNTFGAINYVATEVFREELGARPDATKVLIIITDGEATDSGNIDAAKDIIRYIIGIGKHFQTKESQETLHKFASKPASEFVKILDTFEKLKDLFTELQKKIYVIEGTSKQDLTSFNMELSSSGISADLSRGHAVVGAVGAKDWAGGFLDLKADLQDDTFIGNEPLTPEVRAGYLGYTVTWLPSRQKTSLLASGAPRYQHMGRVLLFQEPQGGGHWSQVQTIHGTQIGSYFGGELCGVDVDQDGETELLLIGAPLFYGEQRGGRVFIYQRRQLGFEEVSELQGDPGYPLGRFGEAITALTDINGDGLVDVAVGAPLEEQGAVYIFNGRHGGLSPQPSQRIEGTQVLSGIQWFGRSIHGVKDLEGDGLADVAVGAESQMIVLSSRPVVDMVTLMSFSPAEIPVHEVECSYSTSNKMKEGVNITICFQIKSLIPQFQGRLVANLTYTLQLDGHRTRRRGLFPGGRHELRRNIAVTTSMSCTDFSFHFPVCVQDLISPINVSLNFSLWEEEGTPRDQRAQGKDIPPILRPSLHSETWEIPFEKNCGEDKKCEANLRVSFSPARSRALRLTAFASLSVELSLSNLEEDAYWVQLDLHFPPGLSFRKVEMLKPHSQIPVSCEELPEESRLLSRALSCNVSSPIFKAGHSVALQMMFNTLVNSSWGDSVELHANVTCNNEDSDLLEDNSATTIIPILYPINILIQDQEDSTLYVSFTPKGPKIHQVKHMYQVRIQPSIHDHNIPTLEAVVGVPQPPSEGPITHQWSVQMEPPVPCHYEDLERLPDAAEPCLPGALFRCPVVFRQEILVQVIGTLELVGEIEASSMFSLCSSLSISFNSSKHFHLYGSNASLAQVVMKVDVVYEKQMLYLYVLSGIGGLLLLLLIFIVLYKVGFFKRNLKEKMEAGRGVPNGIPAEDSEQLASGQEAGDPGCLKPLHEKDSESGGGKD

Row | Compound | IC50 [1] [µM] | IC50 (Integrin alpha-L) [µM]
1 | CC(C)(O)/C=C/C(=O)[C@@](C)(O)[C@H]1[C@H](O)C[C@@]2(C)[C@@H]3CC=C4[C@@H](C[C@H](O)C(=O)C4(C)C)[C@]3(C)C(=O)C[C@]12C | 1.36 | –
2 | CC(C)(O)CCC(=O)[C@@](C)(O)C1[C@H](O)C[C@@]2(C)[C@@H]3CC=C4C(CC(=O)C(=O)C4(C)C)[C@]3(C)C(=O)C[C@]12C (stereo partly drawn) [Cucurbitacin L] | – | > 50
3 | CC(C)(O)C=CC(=O)[C@](C)(O)[C@H]1[C@H](O)C[C@@]2(C)[C@@H]3CC=C4[C@@H](CC(=O)C(=O)C4(C)C)[C@]3(C)C(=O)C[C@]12C [NSC-521777] | – | 0.95
